From US5670493A, “Aminophenylphosphonic acid compounds” (priority 1995, dated 1997)
Counter-ions that a name gives are not always drawn.

How the values were obtained:
[1] = system: chick embryo chorioallantoic membrane; experiment: Inhibition of the neovascularization of the chick embryo chorioallantoic membrane (CAM test); type: in vivo; details: for inhibition at 125 µM: Gallus gallus, % of eggs with avascular zone > 4 mm, 48 hours; for CAM test: collective results table, with spread, % of eggs displaying an avascular zone
Description: This test is carried out with chick embryos as described previously (Crum R., Szabo S. and Folkman J., Science, (1985), 230, 1375-1378). Fertilized eggs (D0) are incubated at 37° C. An air pocket is created by withdrawing 1 ml of albumin (D3), and a window is then cut in the shell (D4) and the vitelline membrane is removed to expose the chorioallantoic membrane (CAM).
The test products are solubilized in ethanol and applied to methylcellulose disks, which are dried and applied to CAM on day 6. Between 8 and 16 eggs are used per group. The zone located around the disk is then examined 48 hours later. Eggs displaying an avascular zone greater than 4 mm in diameter are counted, and the results are expressed as a percentage of eggs displaying an avascular zone. […]

[2] = system: L1210, A431 and PAEC cells; experiment: Cytotoxicity (microculture tetrazolium assay), three cell lines; type: cell-based, murine (L1210), human (A431), pig (PAEC); details: in words
Description: (§1) Three cell lines were used:
(§2) 1 murine leukemia, L1210,
1 human epidermoid carcinoma, A431,
(§3) 1 primary culture of pig aorta endothelial cells, PAEC.
(§4) The cells are cultured in complete RPMI 1640 medium containing 10% of fetal calf serum, 2 mM glutamine, 50 units/ml of penicillin, 50 μg/ml of streptomycin and 10 mM HEPES (pH=7.4).
(§5) The cells are distributed in microplates and exposed to the compounds of the invention. The cells are then incubated for two days (L1210), 3 days (PAEC) and 4 days (A431). The number of viable cells is then quantified by a colorimetric assay, the microculture tetrazolium assay (Carmichael J., DeGraff W. G., Gazdar A. F., Minna J. D. and Mitchell J. R., Evaluation of a tetrazolium-based semiautomated colorimetric assay: assessment of chemosensitivity testing, Cancer Res., 47, 936-942, (1987)).

M 5076 sarcoma = experiment: Inhibition of tumor growth in vivo in M 5076 sarcoma in mice; details: for M 5076 sarcoma % ITG (inhibition of tumor growth): 13th day; for correlation between antitumor activity and inhibition of angiogenesis: M 5076 antitumor activity versus CAM test, in words
Description: The malignant cells (10^6 /mouse) are inoculated subcutaneously on day 0 to form a tumor nodule. The mice are then distributed at random in treated/control groups (12 mice/group). […] The inhibition of tumor growth (ITG) is evaluated on the 13th day according to the following calculation: [formula]

[3] = Cytotoxicity, L1210 (microculture tetrazolium assay); type: cell-based, murine; details: mouse, l1210 cells; L1210, 2 days; read-out: Cytotoxicity L 1210 IC50
Description: as §1, §2, §4, §5

[4] = Cytotoxicity, PAEC (microculture tetrazolium assay); type: cell-based; details: pig, aorta endothelial cells paec, 3 days, read-out: Cytotoxicity PAEC IC50
Description: as §1, §3, §4, §5

murine leukemia, L1210 = experiment: Cytotoxicity, L1210 (microculture tetrazolium assay); type: cell-based
Description: as §1, §2, §4, §5

O=C(CCCCCCCCCCCCCC(=O)Nc1ccc(P(=O)(O)O)cc1)Nc1ccc(P(=O)(O)O)cc1 [Example 8, 4,4'-[1,13-Tridecanediylbis(carbonylamino)]bis(phenylphosphonic acid)]
inhibition at 125 µM [1]: 90%

O=C(C=C[C@H]1CC[C@H](C=CC(=O)Nc2ccc(P(=O)(O)O)cc2)CC1)Nc1ccc(P(=O)(O)O)cc1 [Example 45, 4,4'-[1,4-trans-Divinylenecyclohexanediylbis(carbonylamino)]bis(phenylphosphonic acid)]
inhibition at 125 µM [1]: 89%

O=C(C=Cc1ccc2cc(C=CC(=O)Nc3ccc(P(=O)(O)O)cc3)ccc2c1)Nc1ccc(P(=O)(O)O)cc1 [Example 40, 4,4'-[2,6-Divinylenenaphthalenediylbis(carbonylamino)]bis(phenylphosphonic acid)]
inhibition at 125 µM [1]: 68%

O=C(/C=C/C=C/c1ccc(/C=C/C=C/C(=O)Nc2ccc(P(=O)(O)O)cc2)cc1)Nc1ccc(P(=O)(O)O)cc1 [Example 47, 4,4'-[1,4-Di(1,3-trans-trans-butadienylene)benzenediylbis(carbonylamino)]bis(phenylphosphonic acid)]
inhibition at 125 µM [1]: 93%

O=C(CCCCCCCCC(=O)Nc1ccc(P(=O)(O)O)cc1)Nc1ccc(P(=O)(O)O)cc1 [Example 1, 4,4'-[1,8-Octanediylbis(carbonylamino)]bis(phenylphosphonic acid)tetrasodium salt]
inhibition at 125 µM [1]: 64% | CAM test [1]: 64 ± 6% | cytotoxic effect [2]: without a cytotoxic effect | M 5076 sarcoma % ITG (inhibition of tumor growth) (M 5076 sarcoma; 60 mg/kg, intraperitoneal day 1 to day 12): 61% | correlation between antitumor activity and inhibition of angiogenesis (M 5076 sarcoma): very good correlation | CC50 at 48 h [3]: > 500 µM | CC50 at 72 h [4]: > 500 µM

O=C(C=Cc1ccc(C=CC(=O)Nc2ccc(P(=O)(O)O)cc2)s1)Nc1ccc(P(=O)(O)O)cc1 [Example 39, 4,4'-[2,5-Divinylenethiophenediylbis(carbonylamino)]bis(phenylphosphonic acid)]
inhibition at 125 µM [1]: 75%

Cc1ccc(C(=O)Nc2ccc(S(=O)(=O)O)c3cc(S(=O)(=O)O)cc(S(=O)(=O)O)c23)cc1NC(=O)c1cccc(NC(=O)Nc2cccc(C(=O)Nc3cc(C(=O)Nc4ccc(S(=O)(=O)O)c5cc(S(=O)(=O)O)cc(S(=O)(=O)O)c45)ccc3C)c2)c1 [Suramin, suramin, reference compound]
inhibition at 125 µM [1]: 20% | CAM test [1]: 20 ± 3% | inhibition of neovascularization (CAM) ([1]; in words): weak inhibition of neovascularization | M 5076 sarcoma % ITG (inhibition of tumor growth) (M 5076 sarcoma; 100 mg/kg, d 1,4,7 i.v.): 67% | cytotoxicity on the L 1210 leukemic line (murine leukemia, L1210): relative cytotoxicity | CC50 at 48 h [3]: 131 ± 21 µM | CC50 at 72 h [4]: 202 ± 10 µM

O=C(Nc1ccc(P(=O)(O)O)cc1)c1ccc(Cc2ccc(C(=O)Nc3ccc(P(=O)(O)O)cc3)cc2)cc1 [Example 11, 4,4'-[4,4'-Diphenylmethanediylbis(carbonylamino)]bis(phenylphosphonic acid)tetra-sodium salt]
inhibition at 125 µM [1]: 65% | CAM test [1]: 65 ± 8% | cytotoxic effect [2]: without a cytotoxic effect | M 5076 sarcoma % ITG (inhibition of tumor growth) (M 5076 sarcoma; 30 mg/kg, intraperitoneal day 1 to day 12): 60% | correlation between antitumor activity and inhibition of angiogenesis (M 5076 sarcoma): very good correlation | CC50 at 48 h [3]: > 500 µM | CC50 at 72 h [4]: 429 µM

O=C(CC[C@H]1CC[C@H](CCC(=O)Nc2ccc(P(=O)(O)O)cc2)CC1)Nc1ccc(P(=O)(O)O)cc1 [Example 32, 4,4'-[trans-1,4-Diethylenecyclohexanediylbis(carbonylamino)]bis(phenylphosphonic acid)]
inhibition at 125 µM [1]: 80%

O=C(CCCCCCCCCCCCC(=O)Nc1ccc(P(=O)(O)O)cc1)Nc1ccc(P(=O)(O)O)cc1 [Example 7, 4,4'-[1,12-Dodecanediylbis(carbonylamino)]bis(phenylphosphonic acid)]
inhibition at 125 µM [1]: 56%

O=C(C=Cc1ccc(C=CC(=O)Nc2ccc(P(=O)(O)O)cc2)cc1)Nc1ccc(P(=O)(O)O)cc1 [Example 24, 4,4'-[1,4-Divinylenebenzenediylbis(carbonylamino)]bis(phenylphosphonic acid)]
inhibition at 125 µM [1]: 82%

O=C(C=Cc1ccc(C=CC(=O)Nc2ccc(P(=O)(O)O)cc2)c2ccccc12)Nc1ccc(P(=O)(O)O)cc1 [Example 44, 4,4'-[1,4-Divinylenenaphthalenediylbis(carbonylamino)]bis(phenylphosphonic acid)]
inhibition at 125 µM [1]: 80%

O=C(CCCCCCCCCCC(=O)Nc1ccc(P(=O)(O)O)cc1)Nc1ccc(P(=O)(O)O)cc1 [Example 5, 4,4'-[1,10-Decanediylbis(carbonylamino)]bis(phenylphosphonic acid)tetrasodium salt]
inhibition at 125 µM [1]: 68%
